Results reported in patent publication US20080292627A1, “Compositions and Methods for Treating Mood and Anxiety Disorders” (THE BOARD OF TRUSTEES OF THE UNIVERSITY OF ILLINOIS, priority 2005, published 2008).

Assays:
tubulin [1] = settings: cited from earlier work
tubulin [2] = experiment: SPOT membrane peptide array, tubulin binding to immobilized Gsα-derived peptides; parameters: species or system Ovine; settings: equimolar Gsα (150 nM), 37° C., 1 hour; SPOT membrane 1
Source text: Peptides were synthesized on to a cellulose membrane with PEG spacer (8×12 cm^2) (AIMS Scientific Products, Braunschweig, Germany) via the C-terminal amino acid in sequential spots by the use of a SPOT synthesis kit (SIGMA genosys, St. Louis, Mo.) (Frank, J. Immunol. Methods 267: 13-26, 2002; Frank, Tetrahedron 48: 9217-9232, 1992). The peptides corresponded to the amino acid sequence of Gsα (Genbank accession number P04895, homo sapiens, Gsα long form; SEQ ID NO: 15), which was divided into overlapping peptides (12 amino acids in length with 7 amino acid overlap between sequential peptide, 73 total spots). Spot 1 corresponded to amino acids 1-12 and Spot 2 corresponded to residues 6-17 in the primary amino acid sequence (SEQ ID NO: 15), etc. […]
Ovine brain tubulin was prepared as previously described (Shelanski et al., Proc. Natl. Acad. Sci. USA. 70: 765-768, 1973). […] Purity of the prepared tubulin, as determined by SDS gel electrophoresis, was always greater than 95%. […] Protein concentrations were determined by Coomasie Blue binding (BioRad Protein Assay) with Bovine Serum Albumin as a standard (Bradford, Anal. Biochem. 72: 248-254, 1976). […]

Gsα: stimulatory G protein α subunit of adenylyl cyclase
binding to tubulin (in words) (tubulin [1]): bind with a high affinity | Kd (tubulin [1]; read-out: KD of tubulin binding): ~0.13 µM | effect of prior incubation of tubulin with Gsα on tubulin binding to the immobilized peptides (tubulin [2]): prevented tubulin from binding
